Values of other authors as cited in US10071030B2, “Carrier comprising non-neutralised tocopheryl phosphate” (Phosphagenics Limited, priority 2010, dated 2018).

Conditions: from dietary sources

bioavailable fraction of CoQ10: 5 to 10%
SMILES: COC1=C(OC)C(=O)C(C/C=C(\C)CC/C=C(\C)CC/C=C(\C)CC/C=C(\C)CC/C=C(\C)CC/C=C(\C)CC/C=C(\C)CC/C=C(\C)CC/C=C(\C)CCC=C(C)C)=C(C)C1=O [CoQ10, ubiquinone]
